molecular target: human RIP1 kinase domain (2-375) (Homo sapiens (Human), UniProt Q13546); assay: biochemical; format: biochemical; details: Ki
In short: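 50 nM purified kinase domain from baculovirus-infected insect cells, incubated 2 h with compound in 50 mM Hepes pH 7.5, 30 mM MgCl2, 1 mM DTT, 50 uM ATP, 0.002% Brij-35, 0.5% DMSO. ADP formation read by Transcreener FP at 633 nm excitation. Ki^app fitted with the Morrison tight-binding equation.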

human RIP1 kinase domain (2-375), sequence (Q13546 2-375): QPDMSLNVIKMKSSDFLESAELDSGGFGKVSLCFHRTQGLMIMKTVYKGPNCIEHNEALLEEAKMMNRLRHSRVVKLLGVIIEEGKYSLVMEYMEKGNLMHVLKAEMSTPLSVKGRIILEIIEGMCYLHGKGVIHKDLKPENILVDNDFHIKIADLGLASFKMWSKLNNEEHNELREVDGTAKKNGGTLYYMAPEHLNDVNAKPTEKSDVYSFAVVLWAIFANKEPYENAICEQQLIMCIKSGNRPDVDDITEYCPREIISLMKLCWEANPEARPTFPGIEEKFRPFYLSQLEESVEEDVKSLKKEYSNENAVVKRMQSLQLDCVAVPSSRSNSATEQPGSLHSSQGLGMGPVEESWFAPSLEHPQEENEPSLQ

Row | Ki [nM] | SMILES
1 | 411 | CN1C(=O)[C@@H](NC(=O)c2ncn(Cc3ccccc3)n2)CCn2nc(C3CNC3)cc21 [Example 754, 1-benzyl-N-[(6S)-2-(azetidin-3-yl)-4-methyl-5-oxo-7,8-dihydro-6H-pyrazolo[1,5-a][1,3]diazepin-6-yl]-1,2,4-triazole-3-carboxamide]

same assay, conditions: Table 1; apparent Ki (Morrison tight-binding fit); 50 nM RIP1 kinase domain, 50 uM ATP, 2 hours incubation; read-out: RIP1 Ki

Row | SMILES | Ki [nM]
2 | CC1Cc2c(C(=O)N[C@H]3COc4[nH]ncc4NC3=O)n[nH]c2CO1 (stereo partly drawn) [Example 25, 5-methyl-N—((S)-5-oxo-4,5,6,7-tetrahydro-1H-pyrazolo[3,4-b][1,4]oxazepin-6-yl)-1,4,5,7-tetrahydropyrano[3,4-c]pyrazole-3-carboxamide] | > 10000
3 | Cc1cc2n(n1)CCC(NC(=O)c1nnc(Cc3ccccc3)[nH]1)C(=O)N2C (stereo not drawn) [Example 28, 5-benzyl-N-(2,4-dimethyl-5-oxo-5,6,7,8-tetrahydro-4H-pyrazolo[1,5-a][1,3]diazepin-6-yl)-4H-1,2,4-triazole-3-carboxamide] | 137

same assay, conditions: Table 5; apparent Ki (Morrison tight-binding fit); 50 nM RIP1 kinase domain, 50 uM ATP, 2 hours incubation; read-out: Ki

Row | Ki [nM] | SMILES
4 | 73 | CN1C(=O)[C@@H](NC(=O)c2cc3c(cn2)cnn3CCC(F)F)COc2ccccc21 [Example 711, 1-(3,3-difluoropropyl)-N-[(3S)-5-methyl-4-oxo-2,3-dihydro-1,5-benzoxazepin-3-yl]pyrazolo[4,3-c]pyridine-6-carboxamide]
5 | 137 | CN1C(=O)[C@@H](NC(=O)c2ccn(Cc3ccccc3)n2)CCn2nccc21 [Example 740, 1-benzyl-N-[(6S)-4-methyl-5-oxo-7,8-dihydro-6H-pyrazolo[1,5-a][1,3]diazepin-6-yl]pyrazole-3-carboxamide]

same assay, conditions: human RIP1 kinase domain (2-375), 50 uM ATP, 2 hours incubation, Transcreener ADP assay; read-out: RIP1 Ki

Row | Ki [nM] | SMILES
6 | 29.7 | Cc1cc2n(n1)CC[C@H](NC(=O)c1ncn(Cc3cccc(F)c3F)n1)C(=O)N2C [Example 219, (S)-1-(2,3-difluorobenzyl)-N-(2,4-dimethyl-5-oxo-5,6,7,8-tetrahydro-4H-pyrazolo[1,5-a][1,3]diazepin-6-yl)-1H-1,2,4-triazole-3-carboxamide]
7 | 390 | CN1C(=O)C(NC(=O)c2cn(Cc3ccccc3)nn2)CCn2nc3c(c21)CCCC3 (stereo not drawn) [Example 135, 1-benzyl-N-(1-methyl-2-oxo-2,3,4,5,8,9,10,11-octahydro-1H-[1,3]diazepino[1,2-b]indazol-3-yl)-1H-1,2,3-triazole-4-carboxamide]

same assay, conditions: human RIP1 kinase domain (2-375), Transcreener ADP assay, 50 uM ATP, 2 hours incubation; read-out: RIP1 Ki

Row | Ki [nM] | SMILES
8 | 511 | COCC1(C)OCc2cnc(C(=O)N[C@H]3COc4ccccc4N(C)C3=O)cc21 (stereo partly drawn) [Example 231, 1-(methoxymethyl)-1-methyl-N—((S)-5-methyl-4-oxo-2,3,4,5-tetrahydrobenzo[b][1,4]oxazepin-3-yl)-1,3-dihydrofuro[3,4-c]pyridine-6-carboxamide]
9 | 100 | CC(c1ccccc1)n1cnc(C(=O)N[C@H]2CCn3nc(C4CC4)cc3N(C)C2=O)n1 (stereo in doubt) [Example 292, (S)—N-(2-cyclopropyl-4-methyl-5-oxo-5,6,7,8-tetrahydro-4H-pyrazolo[1,5-a][1,3]diazepin-6-yl)-1-(1-phenylethyl)-1H-1,2,4-triazole-3-carboxamide]
10 | 52.8 | CCCC1(C)OCc2cnc(C(=O)N[C@H]3COc4ccccc4N(C)C3=O)nc21 (stereo partly drawn) [Example 309, 7-methyl-N—((S)-5-methyl-4-oxo-2,3,4,5-tetrahydrobenzo[b][1,4]oxazepin-3-yl)-7-propyl-5,7-dihydrofuro[3,4-d]pyrimidine-2-carboxamide]
11 | 419 | Cc1ncn2c1N(C)C(=O)C(NC(=O)c1cn(Cc3ccccc3)nn1)CC2 (stereo not drawn) [Example 227, 1-benzyl-N-(1,9-dimethyl-2-oxo-2,3,4,5-tetrahydro-1H-imidazo[1,5-a][1,3]diazepin-3-yl)-1H-1,2,3-triazole-4-carboxamide]
12 | 117 | CC(c1ccc(F)cc1)n1cnc(C(=O)N[C@H]2CCn3nc(C4CC4)cc3N(C)C2=O)n1 (stereo in doubt) [Example 290, (S)—N-(2-cyclopropyl-4-methyl-5-oxo-5,6,7,8-tetrahydro-4H-pyrazolo[1,5-a][1,3]diazepin-6-yl)-1-(1-(4-fluorophenyl)ethyl)-1H-1,2,4-triazole-3-carboxamide]

same assay, conditions: scale-up batches (Examples A-C); apparent Ki (Morrison tight-binding fit); 50 nM RIP1 kinase domain, 50 uM ATP; read-out: Ki

Row | Ki [nM] | SMILES
13 | 22 | Cc1cc2n(n1)CC[C@H](NC(=O)c1ncn(Cc3ccccc3)n1)C(=O)N2C [Example C, (S)-1-benzyl-N-(2,4-dimethyl-5-oxo-5,6,7,8-tetrahydro-4H-pyrazolo[1,5-a][1,3]diazepin-6-yl)-1H-1,2,4-triazole-3-carboxamide]

same assay, conditions: tight-binding apparent inhibition constant; human RIP1 kinase domain (2-375) 50 nM, 50 uM ATP, 2 hours; read-out: Ki

Row | Ki [nM] | SMILES
14 | 163 | CCC[C@@]1(C)OCc2cnc(C(=O)N[C@H]3COc4ccccc4N(C)C3=O)nc21 (racemic) [Example 684, rac-(7R)-7-methyl-7-propyl-N-[rao-(3S)-5-methyl-4-oxo-2,3-dihydro-1,5-benzoxazepin-3-yl]-5H-furo[3,4-d]pyrimidine-2-carboxamide]
15 | 10.9 | CCC[C@]1(C)OCc2cnc(C(=O)N[C@H]3COc4ccccc4N(C)C3=O)nc21 (mixture of isomers) [Example 683, (7S)-7-methyl-7-propyl-N-[rac-(3S)-5-methyl-4-oxo-2,3-dihydro-1,5-benzoxazepin-3-yl]-5H-furo[3,4-d] pyrimidine-2-carboxamide]
16 | 36 | CN1C(=O)[C@@H](NC(=O)c2nc3cccc(-c4cnn(C)c4)n3n2)COc2ccccc21 [Example 398, (S)-5-(1-methyl-1H-pyrazol-4-yl)-N-(5-methyl-4-oxo-2,3,4,5-tetrahydrobenzo[b][1,4]oxazepin-3-yl)-[1,2,4]triazolo[1,5-a]pyridine-2-carboxamide]
17 | 290 | Cc1cc2n(n1)CC[C@H](NC(=O)c1ncn(Cc3ccccn3)n1)C(=O)N2C [Example 651, 1-(2-pyridylmethyl)-N-(6S)-2,4-dimethyl-5-oxo-7,8-dihydro-6H-pyrazolo[1,5-a][1,3]diazepin-6-yl-1,2,4-triazole-3-carboxamide]
18 | 6.4 | CN1C(=O)[C@@H](NC(=O)c2nnn(Cc3ccccc3)n2)CCn2nc(C3CC3)cc21 [Example 542]
19 | 394 | CCC1CCc2nc(C(=O)N[C@H]3CCn4nccc4N(C)C3=O)nn21 (stereo partly drawn) [Example 351, 5-ethyl-N-[(6S)-4-methyl-5-oxo-7,8-dihydro-6H-pyrazolo[1,5-a][1,3]diazepin-6-yl]-6,7-di hydro-5H-pyrrolo[1,2-b][1,2,4]triazole-2-carboxamide]
20 | 17 | CN1C(=O)[C@@H](NC(=O)c2nc3n(n2)CC[C@@H]3c2ccccc2)COc2ccccc21 [Example 573, (7R)-7-phenyl-N-[(3S)-5-methyl-4-oxo-2,3-dihydro-1,5-benzoxazepin-3-yl]-6,7-dihydro-5H-pyrrolo[1,2-b][1,2,4]triazole-2-carboxamide]
21 | 463 | CN1C(=O)[C@@H](NC(=O)c2nc3cccc(-c4cnn(C)c4)n3n2)CCn2nccc21 [Example 393, (S)-5-(1-methyl-1H-pyrazol-4-yl)-N-(4-methyl-5-oxo-5,6,7,8-tetrahydro-4H-pyrazol-[1,5-a][1,3]diazepin-6-yl)-[1,2,4]triazolo[1,5-a]pyridine-2-carboxamide]
22 | 4.2 | CN1C(=O)[C@@H](NC(=O)c2ncc3cnn(C4CCCC4)c3n2)COc2ccccc21 [Example 485, 1-cyclopentyl-N-[(3S)-5-methyl-4-oxo-2,3-dihydro-1,5-benzoxazepin-3-yl]pyrazolo[3,4-d]pyrimidine-6-carboxamide]
23 | 9.4 | Cc1cc(F)c2c(c1)OC[C@H](NC(=O)c1nc3cccc(C(F)(F)F)n3n1)C(=O)N2 [Example 419, (S)—N-(6-fluoro-8-methyl-4-oxo-2,3,4,5-tetrahydrobenzo[b][1,4]oxazepin-3-yl)-5-(trifluoromethyl)-[1,2,4]triazolo[1,5-a]pyridine-2-carboxamide]
24 | 5 | Cc1cc2n(n1)CC[C@H](NC(=O)c1nnn(Cc3ccccc3)n1)C(=O)N2C [Example 541, 2-benzyl-N-(6S)-2,4-dimethyl-5-oxo-7,8-dihydro-6H-pyrazolo[1,5-a][1,3]diazepin-6-yltetrazole-5-carboxamide]
25 | 3800 | Cc1cc2n(n1)CC[C@@H](NC(=O)c1ncc3cnn(-c4ccccn4)c3n1)C(=O)N2C [Example 633, 1-(2-pyridyl)-N-[(6R)-2,4-dimethyl-5-oxo-7,8-dihydro-6H-pyrazolo[1,5-a][1,3]diazepin-6-yl]pyrazolo[3,4-d]pyrimidine-6-carboxamide]
26 | 10.4 | CN1C(=O)[C@@H](NC(=O)c2ncc3cnn(C(F)(F)F)c3n2)COc2ccccc21 [Example 360, N-[(3S)-5-methyl-4-oxo-2,3-dihydro-1,5-benzoxazepin-3-yl]-1-(trifluoromethyl)pyrazolo[3,4-d]pyrimidine-6-carboxamide]
27 | 43 | Cc1cc2n(n1)CC[C@H](NC(=O)c1ncn(CC3CC(C)(C)C3)n1)C(=O)N2C [Example 555, 1-[(3,3-dimethylcyclobutyl)methyl]-N-(6S)-2,4-dimethyl-5-oxo-7,8-dihydro-6H-pyrazolo[1,5-a][1,3]diazepin-6-yl-1,2,4-triazole-3-carboxamide]
28 | 21 | Cc1ccccc1Cn1cnc(C(=O)N[C@H]2CCn3nc(C4CC4)cc3N(C)C2=O)n1 [Example 604]
29 | 25 | Cc1cc2n(n1)CC[C@H](NC(=O)c1ncn(Cc3ccccc3C(F)(F)F)n1)C(=O)N2C [Example 584, N-(6S)-2,4-dimethyl-5-oxo-7,8-dihydro-6H-pyrazolo[1,5-a][1,3]diazepin-6-yl-1-[[2-(trifluoromethyl)phenyl]methyl]-1,2,4-triazole-3-carboxamide]
30 | 4.67 | CC(C)[C@@H]1CCCc2nc(C(=O)N[C@H]3COc4cc(F)cc(F)c4NC3=O)nn21 (single isomer, unassigned) [Example 444]

Source: patent publication US10988459B2 (priority 2015, dated 2021)
